Experimental data from patent US11806342B2, “Diiodohydroxyquinoline for the treatment of clostridium difficile infection” (Purdue Research Foundation, priority 2019, dated 2023).
In brackets after ≈: the same amount, converted by molar mass.

How the values were obtained:
Type in all cases: cell-based, Clostridium difficile
[1] = test system: 38 tested C. difficile strains; experiment: MIC and MBC over the panel of clinical isolates (MIC50, MIC90, range)
Method: MIC50 and MIC90 are the minimum concentration of each agent that inhibited growth of 50% and 90% of the tested isolates, respectively. The minimum bactericidal concentration (MBC) of these drugs was tested by plating 5 μL from wells with no growth onto BHIS agar plates. The MBC was categorized as the lowest concentration that reduced bacterial growth by 99.9% MIC50 and MIC90 are the minimum concentration of each agent that inhibited the growth of 50% and 90% of the tested isolates, respectively. The minimum bactericidal concentration (MBC) of these drugs was tested by plating 5 μL from wells with no growth onto BHIS agar plates. The MBC was categorized as the lowest concentration that reduced bacterial growth by 99.9% [29-31].

C. difficile HM-745 = experiment: MIC and MBC, broth microdilution; settings: Clostridioides difficile, HM745, C. difficile HM-745
Method: (§1) Antibacterial activity of Diiodohydroxyquinoline against a wide panel of Clostridium difficile strains. […] MIC50 and MIC90 are the minimum concentration of each agent that inhibited growth of 50% and 90% of the tested isolates, respectively. The minimum bactericidal concentration (MBC) of these drugs was tested by plating 5 μL from wells with no growth onto BHIS agar plates. The MBC was categorized as the lowest concentration that reduced bacterial growth by 99.9% MIC50 and MIC90 are the minimum concentration of each agent that inhibited the growth of 50% and 90% of the tested isolates, respectively. The minimum bactericidal concentration (MBC) of these drugs was tested by plating 5 μL from wells with no growth onto BHIS agar plates. The MBC was categorized as the lowest concentration that reduced bacterial growth by 99.9% [29-31].

C. difficile P5 = experiment: MIC and MBC, broth microdilution; settings: Clostridioides difficile, C. difficile P5
Method: as §1

C. difficile P19 = experiment: MIC and MBC, broth microdilution; settings: Clostridioides difficile, C. difficile P19
Method: as §1

C. difficile I11 = experiment: MIC and MBC, broth microdilution; settings: Clostridioides difficile, C. difficile I11
Method: as §1

C. difficile P30 = experiment: MIC and MBC, broth microdilution; settings: Clostridioides difficile, C. difficile P30
Method: as §1

C. difficile P15 = experiment: MIC and MBC, broth microdilution; settings: Clostridioides difficile, C. difficile P15
Method: as §1

C. difficile P3 = experiment: MIC and MBC, broth microdilution; settings: Clostridioides difficile, C. difficile P3
Method: as §1

C. difficile I13 = experiment: MIC and MBC, broth microdilution; settings: Clostridioides difficile, C. difficile I13
Method: as §1

C. difficile NR-49278 = experiment: MIC and MBC, broth microdilution; settings: Clostridioides difficile, NR49278, C. difficile NR-49278
Method: as §1

C. difficile I9 [2] = experiment: MIC and MBC, broth microdilution; settings: Clostridioides difficile, C. difficile I9
Method: as §1

C. difficile ATCC 43255 [3] = experiment: Checkerboard assay, DIHQ with metronidazole or vancomycin
Method: (§2) The fractional inhibitory concentration index (ΣFIC) was calculated for each interaction. Interactions where the ΣFIC index was ≤0.5 were categorized as synergistic (SYN).

[4] = test system: C. difficile ATCC BAA-1870; experiment: as above
Method: as §2

C. difficile I9 [5] = experiment: as above
Method: as §2

C. difficile ATCC 43255 [6] = experiment: Spore inhibition assay; settings: five days
Method: (§3) The spore inhibition assay was performed as described in previous reports to investigate the effect of diiodohydroxyquinoline on C. difficile spore formation. Briefly, […], the bacterial suspension was split into microcentrifuge tubes and drugs were added (in triplicates) at concentrations equal to ½×MIC or 1×MIC. Tubes were then, incubated anaerobically for five days at 37° C. Thereafter, an aliquot from each tube was diluted and plated on BHIS agar plates supplemented with 0.1% taurocholic acid, to count the total bacterial counts (vegetative bacteria+spores). The remaining solution was centrifuged, and the pellet was suspended in PBS, stored overnight at 4° C., and subsequently shock-heated at 70° C. for 30 minutes to kill the vegetative cells. The resulting solution was serially diluted and plated to determine the heat-resistant spore counts. Spore inhibition assay was performed as described in previous reports to investigate the effect of DIHQ on C. difficile spore formation. Briefly, log-phase cultures of C. difficile strains (ATCC BAA-1870, ATCC 43255, and NR-49277) were diluted in BHIS to an initial density of ˜10^6 CFU/mL. Afterwards, the bacterial suspension was split in small tubes and the drugs were added (in triplicates) at concentrations equal to ½×MIC or 1×MIC. Tubes were then incubated anaerobically for 5 days at 37° C. After that, an aliquot from each tube was diluted and plated on BHIS agar plates supplemented with 0.1% taurocholic acid, to count the total bacterial count (vegetative bacteria+spores). The remaining solution was centrifuged, and the pellet was suspended in PBS and stored overnight at 4° C. then shock heated at 70° C. for 30 minutes to kill the vegetative cells. The resulting solution was serially diluted and plated to determine the heat-resistant spore counts.

[7] = test system: C. difficile ATCC BAA-1870; experiment: Spore inhibition assay; settings: five days
Method: as §3

C. difficile NR-49277 = experiment: Spore inhibition assay; settings: five days
Method: as §3

[8] = DIHQ with metronidazole, C. difficile ATCC 43255
[9] = DIHQ with vancomycin, C. difficile ATCC 43255
[10] = DIHQ with metronidazole, C. difficile ATCC BAA-1870
[11] = DIHQ with vancomycin, C. difficile ATCC BAA-1870
[12] = DIHQ with metronidazole, C. difficile I9
[13] = DIHQ with vancomycin, C. difficile I9

Oc1c(I)cc(I)c2cccnc12 [DIHQ, 5,7-diiodoquinolin-8-ol]
MIC50 ([1]; Clostridioides difficile, concentration inhibiting growth of 50% of the tested isolates, read-out: MIC50): 0.5 µg/mL (≈ 1.26 µM) | MIC90 ([1]; Clostridioides difficile, concentration inhibiting growth of 90% of the tested isolates, read-out: MIC90): 2 µg/mL (≈ 5.04 µM) | MBC values relative to the corresponding MIC values ([1]; all isolates): equal to or two-fold higher | MIC range ([1]; over the 38 tested C. difficile strains): 0.06 to 2 µg/mL | MBC (C. difficile HM-745; read-out: MBC): 1 µg/mL (≈ 2.52 µM) | MIC (C. difficile HM-745; read-out: MIC): 1 µg/mL (≈ 2.52 µM) | MBC (C. difficile P5; read-out: MBC): 4 µg/mL (≈ 10.1 µM) | MIC (C. difficile P5; read-out: MIC): 2 µg/mL (≈ 5.04 µM) | MBC (C. difficile P19; read-out: MBC): 1 µg/mL (≈ 2.52 µM) | MIC (C. difficile P19; read-out: MIC): 0.5 µg/mL (≈ 1.26 µM) | MBC (C. difficile I11; read-out: MBC): 1 µg/mL (≈ 2.52 µM) | MIC (C. difficile I11; read-out: MIC): 1 µg/mL (≈ 2.52 µM) | MBC (C. difficile P30; read-out: MBC): 0.5 µg/mL (≈ 1.26 µM) | MIC (C. difficile P30; read-out: MIC): 0.5 µg/mL (≈ 1.26 µM) | MBC (C. difficile P15; read-out: MBC): 1 µg/mL (≈ 2.52 µM) | MIC (C. difficile P15; read-out: MIC): 1 µg/mL (≈ 2.52 µM) | MBC (C. difficile P3; read-out: MBC): 2 µg/mL (≈ 5.04 µM) | MIC (C. difficile P3; read-out: MIC): 2 µg/mL (≈ 5.04 µM) | MBC (C. difficile I13; read-out: MBC): 2 µg/mL (≈ 5.04 µM) | MIC (C. difficile I13; read-out: MIC): 2 µg/mL (≈ 5.04 µM) | MBC (C. difficile NR-49278; read-out: MBC): 0.5 µg/mL (≈ 1.26 µM) | MIC (C. difficile NR-49278; read-out: MIC): 0.25 µg/mL (≈ 0.63 µM) | MBC (C. difficile I9 [2]; read-out: MBC): 0.06 µg/mL (≈ 0.151 µM) | MIC (C. difficile I9 [2]; read-out: MIC): 0.06 µg/mL (≈ 0.151 µM) | MIC of DIHQ combined with metronidazole (C. difficile ATCC 43255 [3]; C. difficile ATCC 43255): 0.25 µg/mL | MIC of DIHQ combined with vancomycin (C. difficile ATCC 43255 [3]; C. difficile ATCC 43255): 0.125 µg/mL | MIC alone (C. difficile ATCC 43255 [3]; C. difficile ATCC 43255, Table 4): 1 µg/mL | MIC (C. difficile ATCC 43255 [3]; Clostridioides difficile, ATCC43255, C. difficile ATCC 43255, Table 3, read-out: MIC alone): 1 µg/mL | Interpretation (C. difficile ATCC 43255 [3]; [8]): SYN (ΣFIC index ≤0.5 is considered synergistic (SYN)) | ΣFIC Index (C. difficile ATCC 43255 [3]; [8]): 0.375 | Interpretation (C. difficile ATCC 43255 [3]; [9]): SYN (ΣFIC index ≤0.5 is considered synergistic (SYN)) | ΣFIC Index (C. difficile ATCC 43255 [3]; [9]): 0.25 | MIC of DIHQ combined with metronidazole ([4]; C. difficile ATCC BAA-1870): 0.125 µg/mL | MIC of DIHQ combined with vancomycin ([4]; C. difficile ATCC BAA-1870): 0.06 µg/mL | MIC alone ([4]; C. difficile ATCC BAA-1870, Table 4): 1 µg/mL | MIC ([4]; Clostridioides difficile, ATCCBAA1870, C. difficile ATCC BAA-1870, Table 3, read-out: MIC alone): 1 µg/mL | Interpretation [4, 10]: SYN (ΣFIC index ≤0.5 is considered synergistic (SYN)) | ΣFIC Index [4, 10]: 0.25 | Interpretation [4, 11]: SYN (ΣFIC index ≤0.5 is considered synergistic (SYN)) | ΣFIC Index [4, 11]: 0.185 | MIC of DIHQ combined with metronidazole (C. difficile I9 [5]; C. difficile I9): 0.06 µg/mL | MIC of DIHQ combined with vancomycin (C. difficile I9 [5]; C. difficile I9): 0.06 µg/mL | MIC alone (C. difficile I9 [5]; C. difficile I9, Table 4): 0.06 µg/mL | MIC (C. difficile I9 [5]; Clostridioides difficile, C. difficile I9, Table 3, read-out: MIC alone): 0.06 µg/mL | Interpretation (C. difficile I9 [5]; [12]): ADD (ΣFIC index >0.5 − 1.25 is considered additive (ADD)) | ΣFIC Index (C. difficile I9 [5]; [12]): 1.125 | Interpretation (C. difficile I9 [5]; [13]): ADD (ΣFIC index >0.5 − 1.25 is considered additive (ADD)) | ΣFIC Index (C. difficile I9 [5]; [13]): 1.125 | reduction in spore count (C. difficile ATCC 43255 [6]; C. difficile ATCC 43255, 1×MIC): ~0.99 log10 | reduction in spore count (C. difficile ATCC 43255 [6]; C. difficile ATCC 43255, ½×MIC): ~0.38 log10 | reduction in spore count ([7]; C. difficile ATCC BAA-1870, 1×MIC): ~1.24 log10 | reduction in spore count ([7]; C. difficile ATCC BAA-1870, ½×MIC): ~0.74 log10 | reduction in spore count (C. difficile NR-49277; C. difficile NR-49277, 1×MIC): ~0.62 log10 | reduction in spore count (C. difficile NR-49277; C. difficile NR-49277, ½×MIC): ~0.56 log10
